Data on one substance can be found in US4476328A, “Process for producing 3,3,3-trifluoropropyl substituted phenol” (Kureha Kagaku Kogyo Kabushiki Kaisha, priority 1980, dated 1984).

A short description of the data set: electrical properties (dielectric constant, dielectric loss, volume resistivity). The class given is physicochemical.
Setting [1] is: Table 5, Example 6, temperature not given.

On to “n-octyl-( 3,3,3-trifluoropropyl)benzene [n-octyl(3,3,3-trifluoropropyl)benzene]”, for which, under setting [1], the Dielectric constant was 4.18, the “Dielectric loss (tanδ)” value came out at 0.095% and the Volume resistivity is reported as 1.08 × 10^14 Ω·cm. Also, for the setting “Table 6, Example 7, at 20° C.”, the Dielectric constant is 3.89, the “Dielectric loss (tanδ)” value is recorded as 0.015% and the Volume resistivity was 8.79 × 10^14 Ω·cm.
